According to patent US7037656B2, “Methods and compositions for identifying ligands for nuclear receptors” (priority 2000, dated 2006):

Key:
Experiment in all cases: Yeast 6x EcRE-lacZ β-galactosidase transactivation assay
[1] = system: Aa EcR + Aa USPa; format: cell-based, Aedes aegypti; details: RH 5992 10 μM, 4 hours, DMSO control 2.300
Method: (§1) Briefly, yeast cells are cultured in 5 mL of YPD liquid medium overnight at 30° C. The cell culture was diluted 1:20 in YPD media and further grown until cell density reached an O.D of 0.6. at OD600. The cells were pelleted by centrifugation and washed with 10 mL of TE+0.1M lithium acetate. Cells are then resuspended in 10 mL TE+0.1M lithium acetate and incubated at 30° C. for 1 hour. Cells are collected and resuspended in 0.5 mL of TE+ 0.1M lithium acetate. Aliquots of cells (50 μL), were incubated for 15 minutes at 30° C. with 1–2 μg plasmid DNA in the presence of 5 μg of denatured salmon sperm DNA as DNA carrier. In the case of co-transformation, the indicated plasmids were added simultaneously. 50% polyethyleneglycol of molecular weight 4000, diluted in TE, was added to a final concentration of 35%. DMSO was added to the transformation solution simultaneously to a final concentration 3%. The samples were mixed well by vortexing and incubated for an additional 30 minutes at 30° C. The cell mixture is then heated for 15 minutes at 42° C. Cells were then collected and plated onto appropriate yeast selective media. Transformants of 4 plasmids are selected on the complete media without tryptophan, uracil, leucine and histidine.
(§2) The yeast cells grown overnight in selective liquid media at 30° C. were diluted in prewarmed liquid selective media to 0.1 at OD600 (ODculture). 100 μl of the cell culture was spiked to each well of a.96-well microtiter plate. Ligand (2 μl diluted in DMSO) was added to each well giving a final concentration of DMSO of 2%. As a control, 2 μl of DMSO were also added to additional test wells. The final concentration of the tested compounds in the media is 10 μM. The cells were incubated in the presence of ligand in a shaker at 30° C. After 4 hours of incubation, 100 μl of 2× “Z” Sarcosine-ONPG buffer (120 mM Na2HPO4, 80 mM NaH2PO4, 20 mM KCl, 2 mM MgSO4, 100 mM beta-mercaptoethanol (Sigma), pH 7.0, 0.4% lauroyl sarcosine (Sigma), 4 mg/mL ONPG (Diagnostic Chemicals limited) was added to each well and the plate was further incubated at 37° C. The 2× “Z” Sarcosine-ONPG buffer is freshly prepared or stored at −20° C. prior to use. After incubation at 37° C. for 1 hour. The reaction was stopped by adding 100 μL of quenching solution 0.5 M Na2CO3 and OD405 (ODreaction) and beta-galactosidase activity was measured in a micro plate reader (Biotek) at a wave length of 405–450 nanometers. The effect of copper on enhancement of the transactivation response mediated by the ligands tested was studied by adding CuSO4 to the media to a final concentration of 10 μM.
(§3) Using the transformation method described above, yeast were co-transformed with a reporter gene as shown in FIG. 2 and the expression vector encoding the full-length Aedes aegypti ecdysone receptor, Aa EcR (FIG. 7A) in the presence or absence of the Aa EcR heterodimer partner, Aa USP (a or b form, FIGS. 8A and 8B respectively). Transformed cells were incubated with DMSO alone as a control, or with a proprietary ecdysone receptor ligand (Rohm & Haas tebufenozide[RH5992]) at final concentration 10 μM for 4 hours. The samples were then assayed for β-galactosidase activity as described above. […] As the N-terminal portion of the AaEcR receptor is reported to play a role in ligand independent transactivation, an expression vector containing an N-terminal deletion in the Aa EcR was constructed (see FIG. 7B) and assessed in the β-galactosidase assays described above. […] Restoration of ligand dependent transactivation was observed only when the AaΔN EcR, AaUSP (a or b forms) and co-activator GRIP1 were coexpressed. As in the Drosophila system, the data obtained indicate that the efficiency of ligand-dependent transactivation of the ecdysone receptor in mosquito A. aegypti is dependent on the both heterodimer formation of EcR/USP and also upon proper interaction with co-activator GRIP1.

[2] = system: Aa EcR + Aa USPb; format: cell-based, Aedes aegypti; details: RH 5992 10 μM, 4 hours, DMSO control 3.000
Method: as §1, §2, §3

[3] = system: Aa USPa; format: cell-based, Aedes aegypti; details: RH 5992 10 μM, 4 hours, DMSO control 0.210
Method: as §1, §2, §3

[4] = system: Aa USPb; format: cell-based, Aedes aegypti; details: RH 5992 10 μM, 4 hours, DMSO control 0.196
Method: as §1, §2, §3

[5] = system: Aa ΔA/B EcR + Aa USPa; format: cell-based, Aedes aegypti; details: 4 hours
Method: as §1, §2, §3

[6] = system: Aa ΔA/B EcR + Aa ΔA/B USP + GRIP1; format: cell-based, Aedes aegypti; details: RH 5992 10 μM, 4 hours, DMSO control 0.194
Method: as §1, §2, §3

[7] = system: Aa ΔA/B EcR + Aa ΔA/B USP; format: cell-based, Aedes aegypti; details: RH 5992 10 μM, 4 hours, DMSO control 0.187
Method: as §1, §2, §3

[8] = system: Aa ΔA/B EcR + RXRβ + GRIP1; format: cell-based, Aedes aegypti; mouse; details: RH 5992 10 μM, 4 hours, DMSO control 0.231
Method: The human RXR α (Genbank accession number X52773), mouse RXR β (Genbank accession number X66224) or mouse RXR γ (Genebank accession number X66225) subtypes were expressed in yeast-E. coli multicopy 2μ expression plasmids under regulation of CUP1 promoter with the LEU2 selective marker (1).
Briefly, yeast cells are cultured in 5 mL of YPD liquid medium overnight at 30° C. The cell culture was diluted 1:20 in YPD media and further grown until cell density reached an O.D of 0.6. at OD600. The cells were pelleted by centrifugation and washed with 10 mL of TE+0.1M lithium acetate. Cells are then resuspended in 10 mL TE+0.1M lithium acetate and incubated at 30° C. for 1 hour. Cells are collected and resuspended in 0.5 mL of TE+ 0.1M lithium acetate. […]
Using the transformation method described above, yeast were co-transformed with a reporter gene as shown in FIG. 2 and the expression vector encoding the full-length Aedes aegypti ecdysone receptor, Aa EcR (FIG. 7A) in the presence or absence of the Aa EcR heterodimer partner, Aa USP (a or b form, FIGS. 8A and 8B respectively). […] As the N-terminal portion of the AaEcR receptor is reported to play a role in ligand independent transactivation, an expression vector containing an N-terminal deletion in the Aa EcR was constructed (see FIG. 7B) and assessed in the β-galactosidase assays described above. […]

## CCc1ccc(C(=O)NN(C(=O)c2cc(C)cc(C)c2)C(C)(C)C)cc1 [RH 5992, tebufenozide]
[1]
  β-galactosidase activity: 2.453
[2]
  β-galactosidase activity: 2.700
[3]
  β-galactosidase activity: 0.223
[4]
  β-galactosidase activity: 0.210
[5]; 10 μM, Aa EcR with N-terminal deletion, Aa USP present or absent, no GRIP1
  transactivation of the reporter gene (in words): incapable of transactivating the reporter gene
[5]; RH 5992 10 μM, yeast, Aa ΔA/B EcR + Aa USPa, DMSO control 0.194
  β-galactosidase activity: 0.209
[6]
  β-galactosidase activity: 1.370
[7]
  β-galactosidase activity: 0.196
[8]
  β-galactosidase activity: 1.983
